Source: ChEMBL document CHEMBL3769405, “Discovery of Potent and Selective Inhibitors of Phosphodiesterase 1 for the Treatment of Cognitive Impairment Associated with Neurodegenerative and Neuropsychiatric Diseases” (J Med Chem, 2016)
In brackets after ≈: the same amount, converted by molar mass.

Key:
[1] = target: cGMP-dependent 3',5'-cyclic phosphodiesterase (Homo sapiens, UniProt O00408); experiment: Inhibition of recombinant full length human PDE2A using fluorescent labeled cAMP as substrate after 15 mins by IMAP assay
cGMP-dependent 3',5'-cyclic phosphodiesterase, sequence (O00408 whole entry): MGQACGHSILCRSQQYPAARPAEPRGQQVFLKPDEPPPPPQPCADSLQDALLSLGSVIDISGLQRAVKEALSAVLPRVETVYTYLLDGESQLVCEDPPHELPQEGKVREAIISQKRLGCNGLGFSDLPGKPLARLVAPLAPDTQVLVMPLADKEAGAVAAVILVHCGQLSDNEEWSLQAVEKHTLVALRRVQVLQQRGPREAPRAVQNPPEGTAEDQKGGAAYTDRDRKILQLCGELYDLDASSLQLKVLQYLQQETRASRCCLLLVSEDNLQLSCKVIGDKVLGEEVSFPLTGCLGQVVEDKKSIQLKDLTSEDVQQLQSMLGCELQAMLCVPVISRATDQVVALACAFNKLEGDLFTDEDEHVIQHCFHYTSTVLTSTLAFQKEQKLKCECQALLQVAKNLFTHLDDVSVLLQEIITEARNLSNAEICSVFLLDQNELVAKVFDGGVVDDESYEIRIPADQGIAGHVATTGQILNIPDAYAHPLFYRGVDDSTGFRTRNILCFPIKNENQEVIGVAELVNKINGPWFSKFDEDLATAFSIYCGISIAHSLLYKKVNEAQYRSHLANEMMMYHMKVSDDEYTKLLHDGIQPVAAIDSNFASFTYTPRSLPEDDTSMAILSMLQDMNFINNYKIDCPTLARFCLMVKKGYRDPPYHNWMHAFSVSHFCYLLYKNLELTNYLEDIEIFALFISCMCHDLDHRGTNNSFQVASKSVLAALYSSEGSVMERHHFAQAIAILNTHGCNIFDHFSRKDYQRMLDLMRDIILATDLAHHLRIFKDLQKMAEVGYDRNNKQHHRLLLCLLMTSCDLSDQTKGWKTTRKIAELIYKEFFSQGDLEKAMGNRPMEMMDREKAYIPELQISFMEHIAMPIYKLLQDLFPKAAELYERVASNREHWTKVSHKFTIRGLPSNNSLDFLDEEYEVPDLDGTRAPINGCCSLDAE

[2] = Cmax in C57BL/6 mouse brain at 10 mg/kg administered through oral gavage; type: ADME, organism-based; design: dose 10 mg/kg, route oral
[3] = Intrinsic clearance in human liver microsomes; type: ADME; details: read-out: CLH
[4] = Tmax in Sprague-Dawley rat at 9.75 mg/kg administered through oral gavage; type: ADME, organism-based; details: in vivo
[5] = Half time in Sprague-Dawley rat at 9.75 mg/kg administered through oral gavage; type: ADME, organism-based; details: in vivo
[6] = Inhibition of bovine brain PDE1 using fluorescent labeled cGMP as substrate after 15 mins by IMAP assay; design: species or system Bos taurus
[7] = target: cGMP-inhibited 3',5'-cyclic phosphodiesterase 3B (Homo sapiens, UniProt Q13370); experiment: Inhibition of recombinant full length human PDE3B using fluorescent labeled cAMP as substrate after 15 mins by IMAP assay
cGMP-inhibited 3',5'-cyclic phosphodiesterase 3B, sequence (Q13370 whole entry): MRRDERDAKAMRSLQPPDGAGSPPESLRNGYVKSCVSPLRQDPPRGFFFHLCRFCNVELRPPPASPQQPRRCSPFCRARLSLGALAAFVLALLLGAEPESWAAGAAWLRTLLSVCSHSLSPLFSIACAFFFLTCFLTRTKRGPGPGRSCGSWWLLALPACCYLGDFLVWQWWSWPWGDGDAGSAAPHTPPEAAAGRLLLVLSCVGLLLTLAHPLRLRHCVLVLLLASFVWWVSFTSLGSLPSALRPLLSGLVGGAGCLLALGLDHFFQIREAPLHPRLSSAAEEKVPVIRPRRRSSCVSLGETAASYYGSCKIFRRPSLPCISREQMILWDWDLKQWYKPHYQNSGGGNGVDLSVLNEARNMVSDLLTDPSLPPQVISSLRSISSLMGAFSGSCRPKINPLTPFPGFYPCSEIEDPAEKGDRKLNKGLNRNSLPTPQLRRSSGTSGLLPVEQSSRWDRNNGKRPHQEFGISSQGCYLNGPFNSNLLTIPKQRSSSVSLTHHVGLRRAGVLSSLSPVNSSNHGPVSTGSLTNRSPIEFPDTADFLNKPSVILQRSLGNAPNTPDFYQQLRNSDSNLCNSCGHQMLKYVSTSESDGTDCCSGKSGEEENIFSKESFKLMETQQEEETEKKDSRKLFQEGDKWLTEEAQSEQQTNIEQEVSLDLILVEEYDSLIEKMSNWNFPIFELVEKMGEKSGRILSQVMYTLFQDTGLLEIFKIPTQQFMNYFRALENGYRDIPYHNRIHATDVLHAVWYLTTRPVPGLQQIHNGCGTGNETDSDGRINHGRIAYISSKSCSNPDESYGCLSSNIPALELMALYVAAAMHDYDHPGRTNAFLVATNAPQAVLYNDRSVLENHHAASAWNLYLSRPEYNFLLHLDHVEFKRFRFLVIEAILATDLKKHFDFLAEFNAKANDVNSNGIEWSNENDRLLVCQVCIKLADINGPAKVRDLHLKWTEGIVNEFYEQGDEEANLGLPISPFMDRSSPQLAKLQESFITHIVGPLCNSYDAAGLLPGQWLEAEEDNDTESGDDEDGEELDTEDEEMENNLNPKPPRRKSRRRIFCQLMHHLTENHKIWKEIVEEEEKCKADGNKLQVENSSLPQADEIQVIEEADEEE

[8] = Cmax in Sprague-Dawley rat at 9.75 mg/kg administered through oral gavage; type: ADME, organism-based; design: dose 9.75 mg/kg, route oral; details: in vivo
[9] = Lipophilicity, logD of compound at pH 1.7; type: physicochemical; details: buffer
[10] = target: cAMP and cAMP-inhibited cGMP 3',5'-cyclic phosphodiesterase 10A (Homo sapiens, UniProt Q9Y233); experiment: Inhibition of recombinant full lenght human PDE10A using fluorescent labeled cAMP as substrate after 15 mins by IMAP assay
cAMP and cAMP-inhibited cGMP 3',5'-cyclic phosphodiesterase 10A, sequence (Q9Y233 whole entry): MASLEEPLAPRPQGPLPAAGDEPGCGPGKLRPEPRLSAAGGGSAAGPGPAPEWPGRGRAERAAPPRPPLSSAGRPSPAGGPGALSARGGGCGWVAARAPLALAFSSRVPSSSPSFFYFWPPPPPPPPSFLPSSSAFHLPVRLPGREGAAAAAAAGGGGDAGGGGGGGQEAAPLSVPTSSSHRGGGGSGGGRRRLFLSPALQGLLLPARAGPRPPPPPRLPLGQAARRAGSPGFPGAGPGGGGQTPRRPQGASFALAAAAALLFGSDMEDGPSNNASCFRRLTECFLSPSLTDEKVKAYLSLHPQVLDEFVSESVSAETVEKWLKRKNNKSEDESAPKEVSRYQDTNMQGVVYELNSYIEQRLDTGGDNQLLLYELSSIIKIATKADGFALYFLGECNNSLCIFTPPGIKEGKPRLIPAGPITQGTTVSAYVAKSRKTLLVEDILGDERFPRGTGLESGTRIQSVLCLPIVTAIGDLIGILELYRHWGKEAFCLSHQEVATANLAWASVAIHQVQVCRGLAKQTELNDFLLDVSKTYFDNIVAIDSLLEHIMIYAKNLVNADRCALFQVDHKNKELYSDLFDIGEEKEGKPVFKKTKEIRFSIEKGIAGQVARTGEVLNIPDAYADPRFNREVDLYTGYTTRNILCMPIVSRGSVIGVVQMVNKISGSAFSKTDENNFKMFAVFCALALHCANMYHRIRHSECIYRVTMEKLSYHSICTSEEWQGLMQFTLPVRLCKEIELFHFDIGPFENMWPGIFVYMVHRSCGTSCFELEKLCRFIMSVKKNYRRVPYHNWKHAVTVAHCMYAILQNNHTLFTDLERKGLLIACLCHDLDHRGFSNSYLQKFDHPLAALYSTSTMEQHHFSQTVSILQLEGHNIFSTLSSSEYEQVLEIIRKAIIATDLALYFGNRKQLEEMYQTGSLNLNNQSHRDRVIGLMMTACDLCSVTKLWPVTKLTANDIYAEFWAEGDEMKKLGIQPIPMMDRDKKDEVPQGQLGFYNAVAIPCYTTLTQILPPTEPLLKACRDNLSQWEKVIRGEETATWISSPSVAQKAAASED

[11] = Lipophilicity, logD of compound at pH 7.4; type: physicochemical; details: buffer
[12] = target: 3',5'-cyclic-AMP phosphodiesterase 7B (Homo sapiens, UniProt Q9NP56); experiment: Inhibition of recombinant full lenght human PDE7B using fluorescent labeled cAMP as substrate after 15 mins by IMAP assay
3',5'-cyclic-AMP phosphodiesterase 7B, sequence (Q9NP56 whole entry): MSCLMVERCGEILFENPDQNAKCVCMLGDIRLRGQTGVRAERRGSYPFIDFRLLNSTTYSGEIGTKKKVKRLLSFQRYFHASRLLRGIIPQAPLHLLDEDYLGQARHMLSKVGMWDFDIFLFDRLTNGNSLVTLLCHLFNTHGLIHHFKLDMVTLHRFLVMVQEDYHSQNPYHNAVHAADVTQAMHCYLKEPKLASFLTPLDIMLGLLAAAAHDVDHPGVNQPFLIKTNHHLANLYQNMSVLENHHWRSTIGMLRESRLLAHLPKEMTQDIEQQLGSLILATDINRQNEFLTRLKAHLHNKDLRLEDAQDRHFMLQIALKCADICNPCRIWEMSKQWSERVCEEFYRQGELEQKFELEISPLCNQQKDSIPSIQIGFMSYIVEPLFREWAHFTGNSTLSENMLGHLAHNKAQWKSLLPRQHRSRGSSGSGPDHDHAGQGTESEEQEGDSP

[13] = AUC(infinity) in Sprague-Dawley rat at 1 mg/kg, iv; type: ADME, organism-based; design: dose 1 mg/kg, time infinity, route intravenous; details: in vivo
[14] = Clearance in Sprague-Dawley rat at 1 mg/kg, iv; type: ADME, organism-based; details: in vivo
[15] = AUC(infinity) in Sprague-Dawley rat at 9.75 mg/kg administered through oral gavage; type: ADME, organism-based; design: dose 9.75 mg/kg, route oral, time infinity; details: in vivo
[16] = Cmax in C57BL/6 mouse plasma at 10 mg/kg administered through oral gavage; type: ADME, organism-based; design: dose 10 mg/kg, route oral
[17] = Oral bioavailability in Sprague-Dawley rat at 9.75 mg/kg administered through gavage; type: ADME, organism-based; details: in vivo
[18] = target: High affinity cGMP-specific 3',5'-cyclic phosphodiesterase 9A (Homo sapiens, UniProt O76083); experiment: Inhibition of recombinant full lenght human PDE9A using fluorescent labeled cGMP as substrate after 15 mins by IMAP assay
High affinity cGMP-specific 3',5'-cyclic phosphodiesterase 9A, sequence (O76083 whole entry): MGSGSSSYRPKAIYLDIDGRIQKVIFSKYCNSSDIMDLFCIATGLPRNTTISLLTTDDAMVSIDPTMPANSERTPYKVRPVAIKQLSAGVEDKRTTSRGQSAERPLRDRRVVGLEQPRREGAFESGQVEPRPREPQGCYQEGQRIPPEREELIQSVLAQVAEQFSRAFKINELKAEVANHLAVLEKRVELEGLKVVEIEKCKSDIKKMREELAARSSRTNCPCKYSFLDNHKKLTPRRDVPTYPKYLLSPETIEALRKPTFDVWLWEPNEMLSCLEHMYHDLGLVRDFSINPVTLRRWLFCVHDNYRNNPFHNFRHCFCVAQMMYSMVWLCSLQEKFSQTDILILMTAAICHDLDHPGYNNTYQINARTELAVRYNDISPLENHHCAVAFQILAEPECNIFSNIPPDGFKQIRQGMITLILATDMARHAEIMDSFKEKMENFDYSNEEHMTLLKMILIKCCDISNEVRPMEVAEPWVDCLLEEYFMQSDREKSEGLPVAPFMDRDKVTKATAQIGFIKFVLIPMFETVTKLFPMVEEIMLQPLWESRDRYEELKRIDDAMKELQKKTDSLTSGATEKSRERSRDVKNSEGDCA

[19] = Volume of distribution in Sprague-Dawley rat at 1 mg/kg, iv; type: ADME, organism-based; details: in vivo
[20] = AUClast in C57BL/6 mouse brain at 10 mg/kg administered through oral gavage; type: ADME, organism-based; design: dose 10 mg/kg, time 0 - last, route oral
[21] = Half time in Sprague-Dawley rat at 1 mg/kg, iv; type: ADME, organism-based; details: in vivo
[22] = target: High affinity cAMP-specific and IBMX-insensitive 3',5'-cyclic phosphodiesterase 8A (Homo sapiens, UniProt O60658); experiment: Inhibition of recombinant full lenght human PDE8A using fluorescent labeled cAMP as substrate after 15 mins by IMAP assay
High affinity cAMP-specific and IBMX-insensitive 3',5'-cyclic phosphodiesterase 8A, sequence (O60658 whole entry): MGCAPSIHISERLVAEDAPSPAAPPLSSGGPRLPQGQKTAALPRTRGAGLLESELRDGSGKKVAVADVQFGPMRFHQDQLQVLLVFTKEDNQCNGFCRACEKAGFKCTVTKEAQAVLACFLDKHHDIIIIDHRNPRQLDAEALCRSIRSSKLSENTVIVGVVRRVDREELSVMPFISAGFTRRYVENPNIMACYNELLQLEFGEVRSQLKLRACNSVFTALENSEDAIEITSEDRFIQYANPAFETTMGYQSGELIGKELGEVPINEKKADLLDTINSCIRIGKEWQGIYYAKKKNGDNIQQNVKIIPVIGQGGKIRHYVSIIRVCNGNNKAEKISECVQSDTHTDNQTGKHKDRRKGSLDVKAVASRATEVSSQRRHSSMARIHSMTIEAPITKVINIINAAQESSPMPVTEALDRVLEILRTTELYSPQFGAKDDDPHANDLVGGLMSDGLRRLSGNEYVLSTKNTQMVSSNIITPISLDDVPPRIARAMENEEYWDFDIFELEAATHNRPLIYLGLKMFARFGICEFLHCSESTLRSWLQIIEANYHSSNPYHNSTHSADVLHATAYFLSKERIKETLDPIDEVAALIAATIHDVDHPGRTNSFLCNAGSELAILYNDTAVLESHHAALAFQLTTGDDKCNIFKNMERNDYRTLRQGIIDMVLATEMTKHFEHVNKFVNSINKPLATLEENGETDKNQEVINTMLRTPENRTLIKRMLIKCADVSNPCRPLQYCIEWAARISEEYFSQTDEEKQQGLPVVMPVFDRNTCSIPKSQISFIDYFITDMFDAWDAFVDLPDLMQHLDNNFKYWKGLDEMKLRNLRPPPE

[23] = target: cGMP-specific 3',5'-cyclic phosphodiesterase (Homo sapiens, UniProt O76074); experiment: Inhibition of recombinant full lenght human PDE5A using fluorescent labeled cGMP as substrate after 15 mins by IMAP assay
[24] = Inhibition of bovine retinal PDE6 using fluorescent labeled cGMP as substrate after 15 mins by IMAP assay
[25] = AUClast in C57BL/6 mouse plasma at 10 mg/kg administered through oral gavage; type: ADME, organism-based; design: dose 10 mg/kg, time 0 - last, route oral
[26] = Solubility of compound in PBS; type: physicochemical
[27] = target: 3',5'-cyclic-AMP phosphodiesterase 4A (Homo sapiens, UniProt P27815); experiment: Inhibition of recombinant full lenght human PDE4A using fluorescent labeled cAMP as substrate after 15 mins by IMAP assay
in vivo = details: C57BL/6, mouse, brain/plasma
[28] = Selectivity ratio of Ki for recombinant full lenght human PDE4A to bovine brain PDE1
Rattus norvegicus = experiment: Increase in cognitive performance in ip dosed Sprague-Dawley rat after 60 mins by novel object recognition test; type: functional; details: 1 h, read-out: MED

SMILES | Ki [1] | Cmax [2] | CLint scaled [3] | Tmax [4] | half-life [5] | Ki [6] | Ki [7] | Cmax [8] | logD [9] | Ki [10] | logD [11] | Ki [12] | AUC(0-inf) [13] | AUC(0-inf) [15] | Cmax [16] | AUC(0-t) [20] | Ki [23] | AUC(0-t) [25] | solubility [26] | Ki [27] | also measured
CN1C(=O)c2c(nn(Cc3ccc(C(F)(F)F)cc3)c2Nc2ccccc2)N2C1=N[C@@H]1CCC[C@@H]12 | 39000 nM | 285 ng/mL | 139 mL/min/kg | 0.25 h | 1.5 h | 0.88 nM | 30000 nM | 75 ng/mL | 1.16 | 5400 nM | 4.47 | 1200 nM | 271 ng·h/mL | 214 ng·h/mL | 60 ng/mL | 548 ng·h/mL | 590 nM | 122 ng·h/mL | 35 µM (≈ 16.8 µg/mL) | 930 nM | clearance [14]: 62 mL/min/kg; bioavailability [17]: 8%; Ki [18]: 50000 nM; Vd [19]: 7.44 L/kg; half-life [21]: 1.4 h; Ki [22]: 54000 nM; Ki [24]: 1600 nM
CN1C(=O)c2c(nn(Cc3ccc(C(F)(F)F)nc3)c2Nc2ccccc2)N2C1=N[C@@H]1CCC[C@@H]12 | > 100000 nM | – | – | – | – | 1.9 nM | 42000 nM | – | – | 19000 nM | – | 6100 nM | – | – | – | – | 1200 nM | – | – | 1200 nM | Ki [18]: > 100000 nM; Ki [22]: > 100000 nM; Ki [24]: 5500 nM
CN1C(=O)c2c(nn(Cc3ccc(-c4ccccc4)cc3)c2Nc2ccccc2)N2C1=N[C@@H]1CCC[C@@H]12 | 37000 nM | 474 ng/mL | – | 4 h | 3.1 h | 0.85 nM | 1500 nM | 102 ng/mL | 1.92 | 7900 nM | > 5 | 910 nM | – | 816 ng·h/mL | 130 ng/mL | 542 ng·h/mL | 1600 nM | 286 ng·h/mL | 2 µM (≈ 0.977 µg/mL) | 1300 nM | Ki [18]: > 100000 nM; Ki [22]: 33000 nM; Ki [24]: 1100 nM
CN1C(=O)c2c(nn(Cc3ccc(-c4ccccn4)cc3)c2Nc2ccccc2)N2C1=N[C@@H]1CCC[C@@H]12 | 24000 nM | 28 ng/mL | 189 mL/min/kg | 0.5 h | 1.5 h | 0.085 nM | 1200 nM | 158 ng/mL | -0.58 | 2700 nM | 3.54 | 300 nM | 420 ng·h/mL | 636 ng·h/mL | 48 ng/mL | 21 ng·h/mL | 600 nM | 65 ng·h/mL | > 100 µM | 240 nM | clearance [14]: 40 mL/min/kg; bioavailability [17]: 16%; Ki [18]: 6100 nM; Vd [19]: 2.48 L/kg; half-life [21]: 0.72 h; Ki [22]: 8200 nM; Ki [24]: 430 nM
CN1C(=O)c2c(nn(Cc3ccc(C(F)(F)F)cc3)c2Nc2ccc(F)cc2)N2C1=N[C@@H]1CCC[C@@H]12 | – | 133 ng/mL | 73 mL/min/kg | 0.5 h | 2.2 h | 0.63 nM | – | 42 ng/mL | 1.11 | – | 4.57 | – | 292 ng·h/mL | 164 ng·h/mL | 21 ng/mL | 166 ng·h/mL | – | 24 ng·h/mL | 31 µM (≈ 15.5 µg/mL) | 420 nM | Kp (in vivo): 6.9; clearance [14]: 57 mL/min/kg; bioavailability [17]: 6%; Vd [19]: 7.48 L/kg; half-life [21]: 1.5 h; Ratio Ki [28]: 667
CN1C(=O)c2c(nn(Cc3ccc(-c4cccc(F)n4)cc3)c2Nc2ccccc2)N2C1=N[C@@H]1CCC[C@@H]12.O=P(O)(O)O [LENRISPODUN PHOSPHATE] | – | 387 ng/mL | 78 mL/min/kg | 0.75 h | 1.5 h | 0.058 nM | – | 252 ng/mL | 1.27 | – | 4.41 | – | 300 ng·h/mL | 802 ng·h/mL | 490 ng/mL | 588 ng·h/mL | 630 nM | 826 ng·h/mL | 22 µM | – | minimal effective dose (Rattus norvegicus): 3 mg/kg; clearance [14]: 55 mL/min/kg; bioavailability [17]: 28%; Vd [19]: 6.83 L/kg; half-life [21]: 1.4 h
CN1C(=O)c2c(nn(Cc3ccc(-c4cccc(F)n4)cc3)c2Cc2ccc(F)cc2)N2C1=N[C@@H]1CCC[C@@H]12 | – | 81 ng/mL | 81 mL/min/kg | – | – | 2.3 nM | – | – | 1.42 | – | > 5 | – | – | – | 44 ng/mL | 109 ng·h/mL | – | 69 ng·h/mL | < 1 µM | 780 nM | Kp (in vivo): 1.6; Ratio Ki [28]: 339
